Experimental data taken from ChEMBL document CHEMBL1201862, “PubChem BioAssay data set” (2004).
Active and inactive are the calls of the source.

Assays:
[1] = target: T1, Apoptotic protease-activating factor 1 (Homo sapiens, UniProt O14727); test: SAR analysis of small molecule Activators of Apaf-1 in a Fluorescent assay.; type: functional; conditions: read-out: EC50_Mean;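 also: caspase-3 cleavage of fluorogenic Rh110 DEVD substrate downstream of apoptosome activation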
T1 sequence (O14727 whole entry): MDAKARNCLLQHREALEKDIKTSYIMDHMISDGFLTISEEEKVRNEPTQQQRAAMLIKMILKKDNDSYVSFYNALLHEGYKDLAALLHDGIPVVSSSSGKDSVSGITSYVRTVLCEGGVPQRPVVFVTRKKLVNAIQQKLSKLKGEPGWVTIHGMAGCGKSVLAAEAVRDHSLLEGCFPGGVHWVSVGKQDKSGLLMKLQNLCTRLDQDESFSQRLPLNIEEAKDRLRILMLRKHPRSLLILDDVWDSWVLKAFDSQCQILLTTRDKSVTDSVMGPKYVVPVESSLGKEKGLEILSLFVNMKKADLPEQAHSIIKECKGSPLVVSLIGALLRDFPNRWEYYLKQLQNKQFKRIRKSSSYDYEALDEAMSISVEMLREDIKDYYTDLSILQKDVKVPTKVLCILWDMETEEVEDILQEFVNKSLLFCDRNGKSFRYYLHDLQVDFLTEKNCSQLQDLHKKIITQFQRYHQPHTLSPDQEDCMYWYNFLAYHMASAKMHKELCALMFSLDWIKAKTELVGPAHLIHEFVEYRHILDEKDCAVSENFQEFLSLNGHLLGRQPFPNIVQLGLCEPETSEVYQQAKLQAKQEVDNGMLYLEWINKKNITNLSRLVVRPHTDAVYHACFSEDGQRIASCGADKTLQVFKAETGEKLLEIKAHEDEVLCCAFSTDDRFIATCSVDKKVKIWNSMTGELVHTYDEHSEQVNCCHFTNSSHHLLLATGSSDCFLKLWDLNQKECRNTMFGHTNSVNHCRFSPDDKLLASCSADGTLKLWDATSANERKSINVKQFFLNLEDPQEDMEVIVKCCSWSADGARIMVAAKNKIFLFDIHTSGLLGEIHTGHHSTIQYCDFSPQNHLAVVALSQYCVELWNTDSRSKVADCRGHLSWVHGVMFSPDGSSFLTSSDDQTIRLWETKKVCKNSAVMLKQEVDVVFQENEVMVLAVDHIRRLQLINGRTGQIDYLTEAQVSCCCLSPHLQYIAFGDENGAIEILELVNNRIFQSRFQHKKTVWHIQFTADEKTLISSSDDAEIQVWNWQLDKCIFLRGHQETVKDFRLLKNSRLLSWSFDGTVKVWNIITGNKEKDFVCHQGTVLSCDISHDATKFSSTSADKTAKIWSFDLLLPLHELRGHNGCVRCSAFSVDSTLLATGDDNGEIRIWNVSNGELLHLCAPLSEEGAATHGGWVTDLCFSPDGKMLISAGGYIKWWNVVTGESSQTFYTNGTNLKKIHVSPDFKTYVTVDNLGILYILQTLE

[2] = target: Eukaryotic translation initiation factor 4E (Mus musculus, UniProt P63073); test: blockers of eIF4G binding by eIF4E – biochemical, TR-FRET, dose response (AID 855); type: functional;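 also: potency for disrupting eIF4E binding to eIF4GI seen as loss of FRET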
Sequence of Eukaryotic translation initiation factor 4E (P63073 whole entry): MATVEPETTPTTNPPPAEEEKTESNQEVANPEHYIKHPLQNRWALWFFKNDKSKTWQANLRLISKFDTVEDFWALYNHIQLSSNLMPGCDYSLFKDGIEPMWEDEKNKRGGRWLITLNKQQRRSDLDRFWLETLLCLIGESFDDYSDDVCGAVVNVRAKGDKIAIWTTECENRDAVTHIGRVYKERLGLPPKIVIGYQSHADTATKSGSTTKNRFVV

[3] = target: T2, Ubiquitin-conjugating enzyme E2 N (Homo sapiens, UniProt P61088); type: functional;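 also: Dose-response confirmation in a TR-FRET assay detecting UBC13-driven polyubiquitin chain formation, inhibition measured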
T2 sequence (P61088 whole entry): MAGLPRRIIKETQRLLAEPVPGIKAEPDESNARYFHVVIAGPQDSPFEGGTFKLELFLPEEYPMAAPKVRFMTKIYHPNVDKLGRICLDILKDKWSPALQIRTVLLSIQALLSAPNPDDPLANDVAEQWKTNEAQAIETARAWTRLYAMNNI

[4] = viability of PTEN-deleted HCT116 cells – cell-based, HCT116 PTEN knockout, dose response (AID 1047); type: functional;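 also: HCT116 colon tumor cells with PTEN knocked out; cells exposed to compound for 60 hours before readout; potency for loss of cell viability measured by luminescence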
Melanocortin receptor 4 = Melanocortin receptor 4 (Homo sapiens, UniProt P32245); type: functional, cell-based;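 also: Cell-based assay with luminescence read-out, confirmatory dose-response testing for agonist activity of biased ligands at MC4R; human U2OS cells with tagged receptor and beta-arrestin; potency of agonists that increase receptor coupling to beta-arrestin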
Sequence of Melanocortin receptor 4 (P32245 whole entry): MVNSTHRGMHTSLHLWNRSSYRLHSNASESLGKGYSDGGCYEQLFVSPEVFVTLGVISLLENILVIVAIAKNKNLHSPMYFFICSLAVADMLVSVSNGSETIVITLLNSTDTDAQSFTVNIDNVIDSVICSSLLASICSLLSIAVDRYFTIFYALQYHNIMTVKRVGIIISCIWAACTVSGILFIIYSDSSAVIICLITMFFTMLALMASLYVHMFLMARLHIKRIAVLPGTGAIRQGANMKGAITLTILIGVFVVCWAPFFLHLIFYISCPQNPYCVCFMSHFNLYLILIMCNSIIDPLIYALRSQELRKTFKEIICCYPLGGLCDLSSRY

[5] = HEK-293T viability loss after treatment – luminescence, T-cell screen hits, cytotoxicity control for TCR NF-kB inhibitor project, dose response (AID 489026); type: functional, cell-based;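 also: cells exposed to compound about 14 hours before the viability readout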
[6] = target: Heat shock protein HSP 90-alpha (Homo sapiens, UniProt P07900); type: functional, organism-based
[7] = viability of HCT116 lacking mutant beta-catenin – cell-based, human colon tumor, dose response (AID 1045); type: functional;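 also: HCT116 colon tumor cells with beta catenin knocked out; cells exposed to compound for 60 hours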
[8] = activation of miR-122 Renilla sensor silencing – cell-based, Huh7 psiCHECK-miR122, Renilla luciferase, cherry-picked, dose response (AID 651956); type: functional;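 also: huh7 hepatoma cells stably carrying a psiCHECK-2 miR-122 sensor plasmid; renilla luciferase signal reporting endogenous miR-122 activity after 48 h compound exposure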
[9] = general mammalian cell viability loss – inhibitor set, cherry-pick, set 2, cytotoxicity control for miR-122 modulator project, dose response (AID 720697); type: functional, cell-based
[10] = blockers of CRF-binding protein–CRF-R2 complex – cell-based, uHTS hits, 384-well, dose response (AID 651639); type: functional, Homo sapiens; conditions: read-out: IC50_Mean
Fatty acid synthase [11] = target: T3, Fatty acid synthase (Homo sapiens, UniProt P49327); test: inhibition of human FAS-TE enzyme activity – biochemical, kinetic fluorescence intensity, dose response (AID 624326); type: functional;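 also: rate of fluorescence rise from hydrolysis of a fluorogenic O-methyl fluorescein ester substrate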
T3 sequence (P49327 whole entry): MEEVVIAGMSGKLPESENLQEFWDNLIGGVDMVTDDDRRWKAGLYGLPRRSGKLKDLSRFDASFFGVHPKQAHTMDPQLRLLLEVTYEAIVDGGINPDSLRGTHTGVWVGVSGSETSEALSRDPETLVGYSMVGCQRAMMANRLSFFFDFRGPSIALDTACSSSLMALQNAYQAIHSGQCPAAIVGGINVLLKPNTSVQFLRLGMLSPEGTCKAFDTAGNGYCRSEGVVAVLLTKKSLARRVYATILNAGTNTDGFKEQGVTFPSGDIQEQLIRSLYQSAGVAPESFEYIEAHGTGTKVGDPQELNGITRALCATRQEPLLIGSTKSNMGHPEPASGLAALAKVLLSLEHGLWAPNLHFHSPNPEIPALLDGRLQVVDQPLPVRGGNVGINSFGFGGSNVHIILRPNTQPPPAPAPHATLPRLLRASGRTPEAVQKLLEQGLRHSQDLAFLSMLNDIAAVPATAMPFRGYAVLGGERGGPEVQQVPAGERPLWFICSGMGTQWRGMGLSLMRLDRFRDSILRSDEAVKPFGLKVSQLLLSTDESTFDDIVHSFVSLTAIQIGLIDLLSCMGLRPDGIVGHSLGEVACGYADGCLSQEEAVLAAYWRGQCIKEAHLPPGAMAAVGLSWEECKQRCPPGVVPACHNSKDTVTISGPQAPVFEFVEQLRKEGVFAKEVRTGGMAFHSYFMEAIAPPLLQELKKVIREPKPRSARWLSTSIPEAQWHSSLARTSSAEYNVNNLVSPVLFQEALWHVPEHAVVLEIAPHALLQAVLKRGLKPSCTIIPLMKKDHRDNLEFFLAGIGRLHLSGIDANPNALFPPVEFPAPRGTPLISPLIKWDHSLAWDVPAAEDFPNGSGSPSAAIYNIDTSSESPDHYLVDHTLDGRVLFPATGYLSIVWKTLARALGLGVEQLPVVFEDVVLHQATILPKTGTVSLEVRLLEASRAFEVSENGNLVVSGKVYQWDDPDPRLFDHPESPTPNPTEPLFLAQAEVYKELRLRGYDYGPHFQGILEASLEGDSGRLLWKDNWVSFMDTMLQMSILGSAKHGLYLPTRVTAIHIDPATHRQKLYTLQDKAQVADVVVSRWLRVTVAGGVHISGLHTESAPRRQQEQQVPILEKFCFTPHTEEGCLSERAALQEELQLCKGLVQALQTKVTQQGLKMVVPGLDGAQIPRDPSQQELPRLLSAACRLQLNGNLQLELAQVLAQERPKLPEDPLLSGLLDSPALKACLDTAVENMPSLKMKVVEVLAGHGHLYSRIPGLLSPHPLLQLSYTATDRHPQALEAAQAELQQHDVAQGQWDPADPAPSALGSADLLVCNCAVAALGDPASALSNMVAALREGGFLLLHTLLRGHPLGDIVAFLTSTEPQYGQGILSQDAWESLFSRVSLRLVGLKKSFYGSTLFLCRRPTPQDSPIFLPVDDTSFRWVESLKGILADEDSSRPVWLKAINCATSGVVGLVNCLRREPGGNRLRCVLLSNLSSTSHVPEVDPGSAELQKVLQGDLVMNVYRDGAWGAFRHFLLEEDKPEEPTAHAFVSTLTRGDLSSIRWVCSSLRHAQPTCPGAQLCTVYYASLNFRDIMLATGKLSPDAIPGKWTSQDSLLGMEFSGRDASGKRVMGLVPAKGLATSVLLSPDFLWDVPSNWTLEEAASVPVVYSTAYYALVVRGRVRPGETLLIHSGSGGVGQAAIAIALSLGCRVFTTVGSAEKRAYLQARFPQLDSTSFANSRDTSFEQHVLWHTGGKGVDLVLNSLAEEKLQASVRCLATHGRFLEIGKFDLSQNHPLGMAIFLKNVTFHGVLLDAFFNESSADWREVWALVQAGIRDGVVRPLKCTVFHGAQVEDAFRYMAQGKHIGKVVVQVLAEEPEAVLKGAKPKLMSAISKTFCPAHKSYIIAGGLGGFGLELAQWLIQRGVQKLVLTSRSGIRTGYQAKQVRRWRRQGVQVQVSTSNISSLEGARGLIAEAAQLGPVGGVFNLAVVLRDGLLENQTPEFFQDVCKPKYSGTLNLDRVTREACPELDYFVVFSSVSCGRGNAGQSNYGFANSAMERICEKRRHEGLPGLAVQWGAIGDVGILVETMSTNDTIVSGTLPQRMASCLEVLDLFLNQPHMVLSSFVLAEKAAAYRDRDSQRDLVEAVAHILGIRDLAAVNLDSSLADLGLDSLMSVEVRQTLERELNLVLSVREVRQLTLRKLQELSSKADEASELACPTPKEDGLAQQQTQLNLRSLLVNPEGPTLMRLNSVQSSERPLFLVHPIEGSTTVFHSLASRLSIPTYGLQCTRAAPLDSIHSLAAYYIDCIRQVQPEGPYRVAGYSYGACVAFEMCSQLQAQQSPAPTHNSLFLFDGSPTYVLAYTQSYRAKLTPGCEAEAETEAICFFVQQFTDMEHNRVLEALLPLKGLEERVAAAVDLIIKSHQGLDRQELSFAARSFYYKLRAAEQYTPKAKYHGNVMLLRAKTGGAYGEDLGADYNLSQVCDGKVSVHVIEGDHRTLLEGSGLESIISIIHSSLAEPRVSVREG

[12] = target: T4, Corticotropin-releasing factor receptor 2/Corticotropin-releasing factor-binding protein (Homo sapiens, UniProt P24387+Q13324); test: Dose Response confirmation of uHTS hits for small molecule antagonists of the CRF-binding protein and CRF-R2 receptor complex.; type: functional; conditions: read-out: IC50_Mean
T4 sequence (Q13324 whole entry): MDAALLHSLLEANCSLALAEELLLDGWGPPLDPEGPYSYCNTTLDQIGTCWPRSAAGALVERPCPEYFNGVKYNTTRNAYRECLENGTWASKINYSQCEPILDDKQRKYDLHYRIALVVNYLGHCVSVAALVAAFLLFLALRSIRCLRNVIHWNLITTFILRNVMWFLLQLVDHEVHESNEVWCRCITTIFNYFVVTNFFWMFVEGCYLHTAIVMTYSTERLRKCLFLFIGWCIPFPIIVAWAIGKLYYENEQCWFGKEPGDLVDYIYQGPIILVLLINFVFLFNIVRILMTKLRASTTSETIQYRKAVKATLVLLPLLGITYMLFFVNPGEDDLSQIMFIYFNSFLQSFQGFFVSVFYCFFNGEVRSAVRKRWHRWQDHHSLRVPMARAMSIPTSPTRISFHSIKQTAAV
T4 sequence (P24387 whole entry): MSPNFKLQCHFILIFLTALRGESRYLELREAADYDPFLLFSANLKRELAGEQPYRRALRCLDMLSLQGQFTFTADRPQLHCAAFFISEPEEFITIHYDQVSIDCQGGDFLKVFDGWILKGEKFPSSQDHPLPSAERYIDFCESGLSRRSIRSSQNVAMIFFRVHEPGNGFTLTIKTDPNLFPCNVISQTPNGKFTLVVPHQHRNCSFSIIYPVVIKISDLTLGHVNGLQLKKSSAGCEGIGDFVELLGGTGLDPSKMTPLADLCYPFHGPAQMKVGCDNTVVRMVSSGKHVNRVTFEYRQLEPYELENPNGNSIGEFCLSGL

Fatty acid synthase [13] = target: T3, Fatty acid synthase; test: inhibition of human FAS-TE enzyme activity – biochemical, endpoint fluorescence intensity, uHTS hits, dose response (AID 624327); type: functional;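 also: fluorescence from hydrolysis of an O-methyl fluorescein acyl ester substrate by the enzyme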
[14] = target: T4, Corticotropin-releasing factor receptor 2/Corticotropin-releasing factor-binding protein; test: activators of CRF receptor 2 with binding protein – uHTS hits, confirmation (AID 602473); type: functional; conditions: read-out: EC50_Mean
[15] = target: T5, Sentrin-specific protease 8 (Homo sapiens, UniProt Q96LD8); type: functional
T5 sequence (Q96LD8 whole entry): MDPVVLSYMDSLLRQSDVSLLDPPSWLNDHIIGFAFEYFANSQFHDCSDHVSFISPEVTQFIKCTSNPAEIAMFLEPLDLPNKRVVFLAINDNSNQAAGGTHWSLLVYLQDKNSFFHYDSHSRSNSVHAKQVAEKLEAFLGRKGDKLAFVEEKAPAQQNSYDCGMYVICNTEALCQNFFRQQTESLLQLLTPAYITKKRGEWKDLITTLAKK

[16] = target: T5, Sentrin-specific protease 8; type: functional; remark: listed apart in the source
[17] = target: T6, Rac GTPase-activating protein 1 (Homo sapiens, UniProt Q9H0H5); test: blockers of MgcRacGAP-driven Rac1 GTP hydrolysis – biochemical, ADP Hunter fluorescence, primary and confirmatory, confirmation (AID 624330); type: functional
T6 sequence (Q9H0H5 whole entry): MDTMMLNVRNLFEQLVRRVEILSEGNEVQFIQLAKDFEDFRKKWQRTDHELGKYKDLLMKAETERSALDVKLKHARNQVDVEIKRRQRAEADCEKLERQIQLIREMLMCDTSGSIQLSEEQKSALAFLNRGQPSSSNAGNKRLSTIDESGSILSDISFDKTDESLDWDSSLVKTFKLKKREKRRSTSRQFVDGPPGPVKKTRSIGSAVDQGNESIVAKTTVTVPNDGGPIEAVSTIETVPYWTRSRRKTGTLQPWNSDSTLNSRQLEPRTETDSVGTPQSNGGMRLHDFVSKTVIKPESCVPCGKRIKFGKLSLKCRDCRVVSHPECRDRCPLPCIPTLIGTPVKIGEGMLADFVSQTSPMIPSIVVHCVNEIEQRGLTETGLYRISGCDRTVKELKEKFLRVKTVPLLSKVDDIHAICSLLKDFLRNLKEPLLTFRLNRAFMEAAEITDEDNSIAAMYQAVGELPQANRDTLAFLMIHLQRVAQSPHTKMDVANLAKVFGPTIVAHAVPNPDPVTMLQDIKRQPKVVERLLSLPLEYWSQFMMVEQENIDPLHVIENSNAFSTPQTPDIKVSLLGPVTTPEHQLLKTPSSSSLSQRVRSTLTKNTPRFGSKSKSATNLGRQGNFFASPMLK

H9c2 = test: cells; type: functional, cell-based; conditions: Rattus norvegicus, H9c2, Myocardium
[18] = target: T7, DNA repair and recombination protein RAD54-like (Homo sapiens, UniProt Q92698); test: RAD54 Holliday junction migration blockers – biochemical, fluorescence, cherry-picked samples, dose series, confirmation (AID 651657); type: functional
T7 sequence (Q92698 whole entry): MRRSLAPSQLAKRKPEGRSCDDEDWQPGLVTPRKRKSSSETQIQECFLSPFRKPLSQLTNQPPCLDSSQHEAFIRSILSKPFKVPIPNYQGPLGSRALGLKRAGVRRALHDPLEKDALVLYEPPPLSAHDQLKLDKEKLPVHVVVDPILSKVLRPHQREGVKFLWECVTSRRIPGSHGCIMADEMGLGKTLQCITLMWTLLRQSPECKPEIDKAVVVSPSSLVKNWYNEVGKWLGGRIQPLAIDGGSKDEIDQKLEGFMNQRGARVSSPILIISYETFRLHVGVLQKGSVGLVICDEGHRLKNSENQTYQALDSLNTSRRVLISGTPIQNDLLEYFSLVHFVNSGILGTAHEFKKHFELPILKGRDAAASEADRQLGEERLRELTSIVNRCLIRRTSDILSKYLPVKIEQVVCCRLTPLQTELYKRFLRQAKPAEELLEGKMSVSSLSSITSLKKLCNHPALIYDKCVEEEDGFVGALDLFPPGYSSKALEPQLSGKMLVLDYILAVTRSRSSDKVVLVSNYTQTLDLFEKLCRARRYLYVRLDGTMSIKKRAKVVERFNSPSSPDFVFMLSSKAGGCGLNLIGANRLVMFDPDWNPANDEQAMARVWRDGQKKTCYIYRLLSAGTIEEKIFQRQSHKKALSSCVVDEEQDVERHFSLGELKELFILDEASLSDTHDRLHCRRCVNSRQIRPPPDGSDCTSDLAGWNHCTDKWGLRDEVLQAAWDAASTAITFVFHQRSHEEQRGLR

[19] = NIH3T3 cell viability loss – ATP luminescence, mouse fibroblasts, counter-screen, dose response (AID 2010); type: functional, cell-based;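 also: cells exposed to compound for about 90 hours before reading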
[20] = Trypanosoma cruzi growth suppression in host cells – NIH3T3 host cells, beta-gal luminescence, confirmation (AID 2044); type: functional, cell-based;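 also: intracellular parasites grown in NIH/3T3 mouse fibroblasts as host cells; luminescent beta-galactosidase reporter signal from transgenic T. cruzi replicating inside host cells; inhibitors lower the luminescence signal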

## CC1CCCC(C)N1C(=O)C1CC(c2ccc(F)cc2)=NO1 (configuration not stated)
[1]
  EC50: > 100 µM (inactive)

## CCCCCCCCCCCCCCCC[n+]1ccc(C=NO)cc1
[2]
  IC50: 12.7 µM (active)
[3]
  IC50: > 20 µM (inactive)
[4]
  EC50: 1.26 µM (active)
Melanocortin receptor 4
  EC50: > 3.3 µM (active)
[5]
  IC50: 67.7 µM (inactive)
[6]
  AC50: 3.1 µM (active)
[7]
  EC50: 0.884 µM (active)

## COc1ccccc1C#Cc1ccc2c(c1)O[C@H](CN(C)Cc1cccnc1)[C@@H](C)CN([C@@H](C)CO)S2(=O)=O
[8]
  AC50: 25.6 µM (active)
[9]
  AC50: 0.944 µM (active)

## COc1ccc([N+](=O)[O-])cc1N(CC(O)Cn1nnc2ccccc21)S(=O)(=O)c1ccc(C)cc1 (configuration not stated)
[10]
  IC50: 8.96 µM (active)
Fatty acid synthase [11]
  IC50: 8.07 µM (active)
[12]
  IC50: 4.39 µM (active)
Fatty acid synthase [13]
  IC50: 10.8 µM (active)
[14]
  EC50: > 53 µM (inactive)

## COc1ccc(NCc2ccc([N+](=O)[O-])s2)c(OC)c1
[15]
  IC50: 13.5 µM (active)
[16]
  IC50: 11.6 µM (active)
[17]
  IC50: 34.4 µM (active)

## O=C1SCCN1N=Cc1ccc([N+](=O)[O-])o1
[15]
  IC50: > 100 µM (inactive)
[16]
  IC50: 61 µM (inactive)

## CCc1ccc(-c2ccc(=O)[nH]n2)cc1S(=O)(=O)CCC(=O)Nc1ccccc1OC
[1]
  EC50: > 100 µM (inactive)

## CC(=O)Nc1cc(-c2ccc(C(=O)NC3CC3)cc2)cn2c(-c3cccc(C(C)=O)c3)cnc12
Melanocortin receptor 4
  EC50: > 89.2 µM (inactive)
H9c2
  IC50: 16.3 µM (active)

## Cc1ccc(-n2nnnc2SCc2nnc(-c3ccccc3Br)o2)c(C)c1
[10]
  IC50: 10.7 µM (active)
[12]
  IC50: 2.72 µM (active)
[14]
  EC50: > 53 µM (inactive)

## COc1cc(-c2cc(NC=O)c3ncc(-c4ccccc4)n3c2)cc(OC)c1OC
Melanocortin receptor 4
  EC50: > 89.2 µM (inactive)
H9c2
  IC50: > 79 µM (inactive)

## CN(C)CCN(C(=O)c1ccco1)c1nc2cc3c(cc2s1)OCCO3
[18]
  AC50: 30.6 µM (active)

## CN(C)CCN(C(=O)CN1C(=O)c2ccccc2C1=O)c1nc2cc3c(cc2s1)OCCO3
[18]
  AC50: 57.6 µM (active)
cells
  EC50: 0.163 µM (active)
[19]
  EC50: > 60 µM (not active)
[20]
  EC50: < 0.1 µM (active)

## COc1ccc(C(=O)O/N=C(\N)Cc2ccc(Cl)c(Cl)c2)cc1OC
[10]
  IC50: 5.1 µM (active)

## O=C1CC2(CC(c3c(F)cccc3Cl)=NO2)C(=O)N1c1ccccc1 (configuration not stated)
[1]
  EC50: > 100 µM (inactive)

## COCC(=O)N(C)C[C@H]1Oc2cc(-c3ccccc3F)ccc2S(=O)(=O)N([C@@H](C)CO)C[C@H]1C
[8]
  AC50: 3.15 µM (active)
[9]
  AC50: 8.35 µM (active)
